These results are taken from ChEMBL document CHEMBL6103569, “Discovery of novel fluorine-containing parthenolide analogues as potential antitumor agents” (Eur J Med Chem, 2025).

Type in all cases: functional, cell-based
Test [1] relates to PANC-1. The experiment in a line: Antiproliferative activity against human PANC-1 cells assessed as inhibition of cell growth incubated for 72 hrs by MTT assay. For orientation: Formazan colour is commonly taken as a measure of viable cells.
Test [2] has as its system Huh-7. The experiment in a line: Antiproliferative activity against human Huh-7 cells assessed as inhibition of cell growth incubated for 72 hrs by MTT assay.
Test [3] is described as follows: Antiproliferative activity against human NCI-H820 cells assessed as inhibition of cell growth incubated for 72 hrs by MTT assay.

As usually defined, the IC50 is the concentration needed to halve the response being measured. For the molecule `CN(C)CC1C(=O)O[C@H]2[C@H]1CC/C(CC(F)(F)F)=C\CC[C@@]1(C)O[C@@H]21` (some centres undefined) [listing 1 of 2 here], the IC50 in test [1] (panc-1) was determined as 4.38 µM; in test [2] (huh-7) it was 3.08 µM; in test [3] (nci-h820) it was 4.38 µM.
Consider `C=C1C(=O)O[C@H]2[C@H]1CC/C(CSC(F)(F)F)=C\CC[C@@]1(C)O[C@@H]21`, for which the IC50 in test [1] (Homo sapiens, PANC-1, 72 h) was 1.09 µM; in test [2] (Homo sapiens, Huh-7, 72 h) it was 0.99 µM; in test [3] (Homo sapiens, NCI-H820, 72 h), 1.37 µM.
The corresponding values for `C=C1C(=O)O[C@H]2[C@H]1CC/C(COC(F)F)=C\CC[C@@]1(C)O[C@@H]21` are 3.31 µM, 3.18 µM and 4.32 µM.
Take `CN1CCN(CC2C(=O)O[C@H]3[C@H]2CC/C(CC(F)(F)F)=C\CC[C@@]2(C)O[C@@H]32)CC1` (some centres undefined) [listing 1 of 2 here]: the IC50 was determined as 12.7 µM in test [1] (panc-1), 14.2 µM in test [2] (huh-7) and 22.5 µM in test [3] (nci-h820).
As for `C[C@@]12CC/C=C(/CC(F)(F)F)CC[C@H]3C(CN4CC[C@@H](O)C4)C(=O)O[C@@H]3[C@@H]1O2` (some centres undefined) [listing 1 of 2 here], the IC50 in test [1] (Homo sapiens, PANC-1, 72 h) stood at 4.88 µM; in test [2] (Homo sapiens, Huh-7, 72 h) it was 3.34 µM; in test [3] (Homo sapiens, NCI-H820, 72 h), 4.62 µM.
In the same order, the values of `C=C1C(=O)O[C@H]2[C@H]1CC/C(CSC#N)=C\CC[C@@]1(C)O[C@@H]21` are 1.35 µM, 1.5 µM and 2.04 µM.
The corresponding values for `CN1CCN(CC2C(=O)O[C@H]3[C@H]2CC/C(CC(F)(F)F)=C\CC[C@@]2(C)O[C@@H]32)CC1` (some centres undefined) [listing 2 of 2 here] are 15.8 µM, 14.9 µM and 30.7 µM.
Turning to `C[C@@]12CC/C=C(/CC(F)(F)F)CC[C@H]3C(CN4CCCC4)C(=O)O[C@@H]3[C@@H]1O2` (some centres undefined) [listing 1 of 2 here], the IC50 in test [1] (Homo sapiens, PANC-1, 72 h) amounted to 5.68 µM; in test [2] (Homo sapiens, Huh-7, 72 h), 3.57 µM; in test [3] (Homo sapiens, NCI-H820, 72 h), 6.65 µM.
The corresponding values for `C=C1C(=O)O[C@H]2[C@H]1CC/C(CO)=C\CC[C@@]1(C)O[C@@H]21` are 15.6 µM, 10.1 µM and 13.3 µM.
The corresponding values for `C=C1C(=O)O[C@H]2[C@H]1CC/C(C)=C/CC[C@@]1(C)O[C@@H]21` [PARTHENOLIDE] are 5.13 µM, 3.6 µM and 6.35 µM.
The corresponding values for `CCCN(C)CC1C(=O)O[C@H]2[C@H]1CC/C(CC(F)(F)F)=C\CC[C@@]1(C)O[C@@H]21` (some centres undefined) are 3.62 µM, 3.13 µM and 5.52 µM.
For the molecule `C[C@@]12CC/C=C(/CC(F)(F)F)CC[C@H]3C(CN4CC[C@@H](O)C4)C(=O)O[C@@H]3[C@@H]1O2` (some centres undefined) [listing 2 of 2 here], the IC50 in test [1] (panc-1) came to 3.23 µM; in test [2] (huh-7), 3.1 µM; in test [3] (nci-h820), 3.95 µM.
In the same order, the values of `C[C@@]12CC/C=C(/CC(F)(F)F)CC[C@H]3C(CN4CCCC4)C(=O)O[C@@H]3[C@@H]1O2` (some centres undefined) [listing 2 of 2 here] are 5.19 µM, 4.1 µM and 6.44 µM.
In the same order, the values of `C[C@@]12CC/C=C(/CC(F)(F)F)CC[C@H]3C(CN4CCC(O)CC4)C(=O)O[C@@H]3[C@@H]1O2` (some centres undefined) [listing 1 of 2 here] are 5.43 µM, 2.38 µM and 4.88 µM.
In the case of `C[C@@]12CC/C=C(/CC(F)(F)F)CC[C@H]3C(CN4CCC(O)CC4)C(=O)O[C@@H]3[C@@H]1O2` (some centres undefined) [listing 2 of 2 here], the IC50 is 5.79 µM in test [1] (Homo sapiens, PANC-1, 72 h); 4.38 µM in test [2] (Homo sapiens, Huh-7, 72 h); 6.32 µM in test [3] (Homo sapiens, NCI-H820, 72 h).
In the same order, the values of `C[C@@]12CC/C=C(/CC(F)(F)F)CC[C@H]3C(CN4CCC[C@H]4CO)C(=O)O[C@@H]3[C@@H]1O2` (some centres undefined) are 4.57 µM, 3.67 µM and 4.53 µM.
The corresponding values for `C[C@@]12CC/C=C(/CC(F)(F)F)CC[C@H]3C(CN4CCC[C@@H]4CO)C(=O)O[C@@H]3[C@@H]1O2` (some centres undefined) are 3.66 µM, 3.29 µM and 3.11 µM.
In the same order, the values of `CN(C)CC1C(=O)O[C@H]2[C@H]1CC/C(CC(F)(F)F)=C\CC[C@@]1(C)O[C@@H]21` (some centres undefined) [listing 2 of 2 here] are 3.8 µM, 2.64 µM and 3.86 µM.
